Reference: PMC6385020 (Molecules, 2019)
“Also recorded” adds a separate entry of the source.

How the values were obtained:
[1] = system: all the tested G4s structures; parameters: method as in PMID 21528379; conditions: cited from earlier work
[2] = system: F-21-T (DNA, G4) GGGTTAGGGTTAGGGTTAGGG; assay: FRET-melting; conditions: 10 mM KCl, 90 mM LiCl; 10 mM lithium cacodylate pH 7.3; 1 µM compound, 0.2 µM DNA
[3] = system: F-21CTA-T (DNA, G4) AGGGCTAGGGCTAGGGCTAGGG; assay: FRET-melting; conditions: 1 mM KCl, 99 mM LiCl; 10 mM lithium cacodylate pH 7.3; 1 µM compound, 0.2 µM DNA
[4] = system: F-CEB25-WT-T (DNA, G4) AGGGTGGGTGTAAGTGTGGGTGGGT; assay: FRET-melting; conditions: 1 mM KCl, 99 mM LiCl; 10 mM lithium cacodylate pH 7.3; 1 µM compound, 0.2 µM DNA
[5] = system: F-myc-T (DNA, G4) TGAGGGTGGGTAGGGTGGGTAA; assay: FRET-melting; conditions: 1 mM KCl, 99 mM LiCl; 10 mM lithium cacodylate pH 7.3; 1 µM compound, 0.2 µM DNA
[6] = system: c-myc* (DNA, G4) TGAGGGTGGGTAGGGTGGGTAA; assay: denaturing gel electrophoresis, 3'-exonuclease digestion; conditions: 100 mM KCl or KClO4; covalent; platination at T20/A21 and G2/A3; 18 h, 32 °C, 10 µM DNA
[7] = system: CEB25-WT minisatellite sequence G4; assay: TO G4-FID assay; type: binding; conditions: TO 2 eq, K+100 buffer
Experimental: (§1) For the G4-FID assay, the oligonucleotides were dissolved in K^+100 buffer (10 mM lithium cacodylate buffer pH 7.3, 100 mM KCl, 1% DMSO). Oligonucleotide concentrations were determined on the basis of their absorbance at 260 nm. For the fluorimetric titration, the oligonucleotides were dissolved in K^+100 buffer without DMSO. For the FRET-melting assay, the oligonucleotides were dissolved in K^+1 buffer (10 mM lithium cacodylate buffer pH 7.3, 1 mM KCl, 99 mM LiCl) except for F-21-T. F-21-T was dissolved in K^+10 buffer (10 mM lithium cacodylate buffer pH 7.3, 10 mM KCl, 90 mM LiCl).
(§2) Prior to use, all oligonucleotides were pretreated by heating at 95 °C for 5 min, then rapidly cooled to 4 °C to favor the intramolecular folding by kinetic trapping. Duplex-DNA ds26 was prepared by heating the self-complementary strand at 90 °C for 5 min in K^+1 buffer followed by a slow cooling over 6 h.
(§3) Each G4-FID assay was performed in a 96-well Non-Binding Surface black with black bottom polystyrene microplates (Corning). Every ligand was tested on a line of the microplate, in duplicate. The microplate was filled with (a) K^+100 solution (qs for 200 μL), (b) 10 μL of a solution of pre-folded oligonucleotides (5 μM) and fluorescent probe (TO/TO-PRO-3 (10 μM—2 eq) or PhenDV (7,5 µM—1.5 eq)), and (c) an extemporaneously prepared 5 μM ligand solution in K^+100 buffer (0 to 100 μL) along the line of the microplate, i.e., from column A to column H: 0, 0.125, 0.25, 0.375, 0.5, 0.625, 0.75, 1.0, 1.25, 1.5, 2.0, and 2.5 μM. After 5 min of orbital shaking at 500 rpm, fluorescence is measured using the following experimental parameters: positioning delay of 0.5 s, 20 flashes per well, emission/excitation filters for TO at 485/520, TO-PRO-3 at 620/670, and PhenDV at 355/520 gain adjusted at 80% of the fluorescence from the most fluorescent well (i.e., a well from column A for TO and a well from column H).
(§4) The percentage of TO displacement is calculated from the fluorescence intensity (F), using (1) % TO displacement=1−F/F0 where F0 is the fluorescence from the fluorescent probe bound to DNA without added ligand.
(§5) The PhenDV displacement is calculated from the fluorescence intensity F; F(ligand+probe), which refers to the fluorescence of the probe in presence of the ligand (without G4); and F0, which is the fluorescence without added ligand. The term F(ligand+probe) is necessary as the ligand can quench the fluorescence of the probe. The percentage of displacement is then plotted as a function of the concentration of the added ligand. The DNA affinity was evaluated by the concentration of ligand required to decrease the fluorescence of the probe by 50%, was noted DC50, and was determined after non-linear fitting of the displacement curve.

[8] = system: 22AG human telomeric sequence G4; assay: TO G4-FID assay; type: binding; conditions: TO 2 eq, K+100 buffer
Experimental: as §1, §2, §3, §4, §5

c-myc G4 [9] = assay: TO G4-FID assay; type: binding; conditions: TO 2 eq, K+100 buffer
Experimental: as §1, §2, §3, §4, §5

[10] = system: 21CTA human telomeric sequence variant G4; type: binding; conditions: K+100 buffer; for % of TO displacement at 1 µM of ligand: TO 2 eq; for % of TOPRO3 displacement at 1 µM of ligand: TO-PRO-3 2 eq
Experimental: as §1, §2, §3, §4, §5

[11] = system: A2780 ovarian cancer cell line; assay: Cell growth (proliferation), 96 h treatment; type: cell-based, human
Experimental: (§6) The ovarian carcinoma cell lines and human normal lung cells were purchased from ATCC and were grown in complete RPMI medium (ovarian) and DMEM (human lung cells) supplemented with 10% fetal calf serum, in the presence of penicillin, streptomycin. The resistance of A2780cis cells to cisplatin was maintained by monthly treatment with 1 µM cisplatin for 4 days. Concentrated stock solutions of complexes were conserved at −20 °C (DMSO/Water) and freshly diluted in water just before the experiments. Cells were treated with various concentrations of platinum complexes at 37 °C under humidity and 5% CO2 conditions for 96 h. Cellular growth was quantified using the particle counter MOXI (VWR).

[12] = system: A2780cis cisplatin-resistant ovarian cancer cell line; assay: Cell growth (proliferation), 96 h treatment; type: cell-based, human
Experimental: as §6

[13] = system: CCD19Lu normal lung cell line; assay: Cell growth (proliferation), 96 h treatment; type: cell-based, human
Experimental: as §6

[14] = system: 21CTA human telomeric sequence variant G4; type: binding; conditions: PhenDV 1.5 eq, K+100 buffer
Experimental: as §1, §2, §3
(§7) In the case of PhenDV, the fluorescence of the unbound probe is not negligible. The percentage of displacement becomes (2) % PhenDV Displacement=F−F0/Fligand+probe−F0
as §5

[15] = system: CEB25-WT minisatellite sequence G4; assay: PhenDV G4-FID assay; type: binding; conditions: PhenDV 1.5 eq, K+100 buffer
Experimental: as §1, §2, §3, §7, §5

[16] = system: 22AG human telomeric sequence G4; assay: PhenDV G4-FID assay; type: binding; conditions: PhenDV 1.5 eq, K+100 buffer
Experimental: as §1, §2, §3, §7, §5

c-myc G4 [17] = assay: PhenDV G4-FID assay; type: binding; conditions: PhenDV 1.5 eq, K+100 buffer
Experimental: as §1, §2, §3, §7, §5

[18] = system: G4 structures (22AG, c-myc, 21CTA, CEB25-WT); assay: TO-PRO-3-G4-FID assay, G4 structures; type: binding
Experimental: as §1, §2, §3, §4, §5

[19] = system: G4-DNA structures (F-21-T, F-myc-T, F-21CTA-T, F-CEB25-WT-T); assay: FRET-melting assay (ligand-induced stabilization); type: binding, human
Experimental: as §1, §2
The stabilization of the compounds with a quadruplex-structure was monitored via FRET-melting assay performed in 96-well plates on a real-time PCR apparatus 7900HT Fast Real-Time PCR System as follows: 5 min at 25 °C and then an increase of 0.5 °C every minute until 95 °C. Each experimental condition was tested and replicated in a volume of 25 μL for each sample. The FRET-melting assay was performed with three dual fluorescently labeled DNA oligonucleotide sequences oligonucleotides. The donor fluorophore was 6-carboxyfluorescein, FAM, and the acceptor fluorophore was 6-carboxytetramethylrhodamine, TAMRA. The 96-well plates (Applied Biosystems) were prepared by aliquoting the annealed DNA (0.2 μM in K^+1 or K^+10 buffer) into each well, followed by 1 μL of the ligand ([…] (5 eq) in DMSO). For competition experiments, duplex competitors were added to 200 nM quadruplex sequences at final concentrations of 3.0 μM (15 eq) and 10.0 μM (50 eq), with a total reaction volume of 25 μL, with the labeled oligonucleotide (0.2 μM) and the ligand (1 μM). Measurements were made with excitation at 492 nm and detection at 516 nm. The change in the melting temperature at 1.0 μm compound concentration, ΔTm (1.0 μM), was calculated from at least two experiments by subtraction of the blank from the averaged melting temperature of each compound (1.0 μM). The final analysis of the data was carried out using Origin Pro 8.6 data analysis.

[20] = system: c-myc (myc22) (DNA, G4) TGAGGGTGGGTAGGGTGGGTAA; assay: G4-FID, PhenDV displacement; conditions: 100 mM KCl; 10 mM lithium cacodylate pH 7.3, 1% DMSO; PhenDV displaced; 1 µM compound
[21] = system: CEB25-WT minisatellite sequence G4; assay: TO-PRO-3 G4-FID assay; type: binding; conditions: TO-PRO-3 2 eq, K+100 buffer
Experimental: as §1, §2, §3, §4, §5

[22] = system: 22AG human telomeric sequence G4; assay: TO-PRO-3 G4-FID assay; type: binding; conditions: TO-PRO-3 2 eq, K+100 buffer
Experimental: as §1, §2, §3, §4, §5

c-myc G4 [23] = assay: TO-PRO-3 G4-FID assay; type: binding; conditions: TO-PRO-3 2 eq, K+100 buffer
Experimental: as §1, §2, §3, §4, §5

| Compound | % of TO displacement at 1 µM of ligand [7] [%] | % of TO displacement at 1 µM of ligand [8] [%] | % of TO displacement at 1 µM of ligand (c-myc G4 [9]) [%] | % of TO displacement at 1 µM of ligand [10] [%] | % of TOPRO3 displacement at 1 µM of ligand [10] [%] | % of PhenDV displacement at 1 µM of ligand [14] [%] | % of PhenDV displacement at 1 µM of ligand [15] [%] | % of PhenDV displacement at 1 µM of ligand [16] [%] | % of PhenDV displacement at 1 µM of ligand (c-myc G4 [17]) [%] | other results |
| --- | --- | --- | --- | --- | --- | --- | --- | --- | --- | --- |
| CN1/C(=C/C=C/c2cc[n+](CCC[N+](C)(C)C)c3ccccc23)Sc2ccccc21.[I-].[I-] [TO-PRO-3] | – | – | – | – | – | – | – | – | – | affinity constants towards all the tested G4s structures (Ka) [1]: ~ 10^6 M^−1 |
| [Cl-].[Pt+2].c1ccc(-c2cccc(-c3ccccn3)n2)nc1 | – | – | – | – | – | – | – | – | – | ΔTm [2]: < 10 °C; ΔTm [3]: < 10 °C; ΔTm [4]: < 10 °C; ΔTm [5]: < 10 °C; binding [6]: yes |
| F[P-](F)(F)(F)(F)F.[Pt+][C]#Cc1ccccc1.c1ccc(-c2cccc(-c3ccccn3)n2)nc1 [Pt(PA)-tpy, Phenylethylny-(2,6-bis(pyridin-2-yl)pyridine)-platinum(II) Hexafluorophosphate] | 37 | 55 | 59 | 52 | 3 | 34 | 13 | 20 | 2 | IC50 ([11]; A2780, 96 h treatment): 80 nM; IC50 in words ([11]; A2780 cell lines): active at nM concentration; IC50 [12]: 50 nM; Resistance Factor (IC50ratio A2780cis/A2780) [12]: 0.6; IC50 [13]: 120 nM; TO-PRO-3 displacement [18]: weak displacement; ∆Tm (ligand-induced stabilization, FRET-melting) [19]: complete lack of stabilization properties; also recorded: no stabilization |
| C[n+]1cc(NC(=O)c2ccc3ccc4ccc(C(=O)Nc5cc6ccccc6[n+](C)c5)nc4c3n2)cc2ccccc21 [PhenDC3, reference compound] | 90 | 95 | 96 | 95 | 83 | 100 | 99 | 92 | 85 | binding [20]: yes; % of TOPRO3 displacement at 1 µM of ligand [21]: 88%; % of TOPRO3 displacement at 1 µM of ligand [22]: 85%; % of TOPRO3 displacement at 1 µM of ligand (c-myc G4 [23]): 73% |
